The values below come from PMC7221793, “Metabolism and Pharmacokinetics of SP-8356, a Novel (1S)-(−)-Verbenone Derivative, in Rats and Dogs and Its Implications in Humans” (Molecules, 2020).

Data set [1] in a line: In vivo metabolite identification, pooled rat urine. Particulars: rat pooled urine 0–24 h, single i.v. dose of SP-8356. The method, then: Rat urine samples were collected from the animal studies approved by the IACUC of Korea University (Approval No.: KUIACUC-2017-124; Approval date: Jul. 29, 2017). SP-8356 dissolved in DMA/Cremophor EL/saline (5/10/85 vol.%) was dosed i.v. at 10 mg/kg (n = 5/dose group) to male SD rats (8 weeks old; (255–275) g; Koatech Inc., Gyeonggi, Republic of Korea) housed individually in metabolic cages. Urine samples were collected for ((0–4), (4–8) and (8–24)) h. Pooled urine samples were mixed with equal volume of acetonitrile containing HSDH (1 μg/mL) as IS, followed by filtration with a syringeless filter device (Mini-UniPrep™, PTFE filter media with polypropylene housing, 0.45 µm). The filtrate was analyzed by Agilent 6530 Q-TOF LC-MS/MS system equipped with dual AJS ESI ion source and Agilent 1200 series HPLC system, as follows.
Chromatographic separation was achieved on an Agilent Eclipse C18 column (2.1 mm × 100 mm, 3.5 µm) by a gradient elution with a mobile phase consisting of 0.1 vol.% formic acid in water (A) and 0.1 vol.% formic acid in acetonitrile (B) at 50 °C: starting with 5 vol.% B for 2 min, ramping to 95 vol.% B over 1 min, maintaining for 3 min. The mobile phase flow rate was kept at 0.45 mL/min throughout the run. The sample injection volume was 5 µL. […]

Data set [2] in a line: Metabolic stability in dog liver S9 fraction. It counts as in vitro ADME. The procedure:
The metabolic stability of SP-8356 was investigated using rat, dog and human liver S9 fractions fortified with cofactors for major drug metabolism. The final reaction mixture contained 1 mg/mL rat, dog or human liver S9 fraction, 1 mM cofactors (NADPH, UDPGA, PAPS, SAM and GSH), 2 mM MgCl2, 25 µg/mL alamethicin and 1 µM SP-8356 in final volume of 200 µL. The metabolic reactions were initiated by adding 10 mM cofactor solution to reaction mixtures preincubated for 5 min at 37 °C. The reactions were terminated at (0, 5, 15, 30 and 60) min by the addition of 200 µL ice-cold acetonitrile containing HSDH (1 µg/mL). The subsequent sample preparation and analytical methods were the same as those described in Section 4.5.
The degradation t1/2 of SP-8356 was calculated using the following Equation:(1) t1/2=0.693/k, where, k was the first-order rate constant calculated by one phase decay nonlinear regression using GraphPad Prism™ 7 (GraphPad Software, La Jolla, CA, USA). CLint was calculated using the following Equation:(2) CLint=k/fu,S9· mL incubation/mg liver S9· mg S9/g liver·g liver/kg body wt.
The scaling factors were (136, 120.7 and 120.7) mg S9 protein/g liver and (40, 32 and 26) g liver/kg body weight for rats, dogs and humans, respectively. For simplicity, the fraction unbound in S9 incubation (fu, S9) was assumed to be one. CLH was predicted using the hepatic well-stirred model, as follows:(3) CLH=QH·fu·CLint/QH+fu·CLint, where, QH was the hepatic blood flow of (55, 30 and 20) mL/min/kg for rats, dogs and humans, respectively. The fraction unbound (fu) was assumed to be one. EH was calculated using the following Equation:(4) EH=CLH/QH.

On the set-up of data set [3]: method as in PMID 31036845. Particulars: mice, intraperitoneal administration ref 10; cited from earlier work.
The nature of data set [4]: In vivo metabolite identification, pooled dog plasma (Q-TOF LC-MS/MS). Particulars: i.v. SP-8356 50 mg/kg. The method, then: Plasma samples from the i.v. administrations described in Section 4.2 and Section 4.3 were used in this study. Plasma samples pooled at each time point were subjected to sample preparation as described in Section 4.2. The prepared samples were analyzed by Agilent 6530 Q-TOF LC-MS/MS system equipped with dual AJS ESI ion source and Agilent 1200 series HPLC system as described below.
Chromatographic separation was achieved on an Agilent Eclipse C18 column (2.1 mm × 100 mm, 3.5 µm) by a gradient elution with a mobile phase consisting of 0.1 vol.% formic acid in water (A) and 0.1 vol.% formic acid in acetonitrile (B) at 50 °C: starting with 5 vol.% B for 2 min, ramping to 95 vol.% B over 1 min, maintaining for 3 min. The mobile phase flow rate was kept at 0.45 mL/min throughout the run. The sample injection volume was 5 µL. Ion source parameters were set as follows: capillary voltage, 3500 V; drying gas, 12 L/min and 300 °C; nebulizer gas, 30 psi; sheath gas, 12 L/min and 300 °C. Mass spectra were acquired in negative ion auto MS/MS mode (F, 135 V; CE, 25 eV) with full scan range of m/z (100–1000) and mass scan rate of 8 spectra/s. Metabolites were identified using Agilent MassHunter Metabolite ID software (version B.04.00) (Santa Clara, CA, USA). Chromatograms and mass spectra of the parent and identified metabolites were extracted using Agilent MassHunter Qualitative Analysis software (version B.05.00) (Santa Clara, CA, USA).

`COc1cc(/C=C/C2=CC(=O)[C@H]3C[C@@H]2C3(C)C)cc(O)c1O` [SP-8356, (1S,5R)-4-((E)-3,4-dihydroxy-5-methoxystryryl)-6,6-dimethylbicylco[3.1.1]hept-3-en-2-one]: in data set [1], the “relative peak size (AR) in urine, in total” value is “almost insignificant”. The half-life at 1 µM in data set [2] (Beagle, dog, liver S9 fraction, dog liver S9, −Cofactors, 1 μM) is less than 30 min. This compound also yielded a CLint scaled at 1 µM in data set [2] (Beagle, liver S9 fraction, dog liver S9, +Cofactors) of 2430 mL/min/kg. Moreover, the t1/2 in data set [2] (dog liver S9, −Cofactors, 1 μM) is 20.7 min. Also, in data set [2] (dog, +Cofactors, predicted by well-stirred model), the CLH is listed as 29.6 mL/min/kg. The plasma exposure entry in data set [3] is “Low plasma exposure”. In data set [4] (% versus total AUClast of parent and all detected metabolites), the “AUClast (%)” value was 17.66%. Moreover, the “AUClast (AR∙h) × 10^2” value in data set [4] (AR = peak area ratio versus internal standard) is 698.5 (AR∙h) × 10^2.

Broadly, the half-life is the time needed for the level to fall by half in the phase considered. A lower half-life goes with fast loss. As usually defined, the CLint scaled is the rate of metabolic loss divided by the concentration.
